Active and inactive are the calls of the source.
Columns and labels:
[1] = Subacute toxicity in C57BL/6 mouse assessed as change in spleen weight at 125 mg/kg, po administered for 3 days; format: organism-based; conditions: in vivo, 72 h, time 3 day
[2] = Subacute toxicity in C57BL/6 mouse assessed as change in liver weight at 125 mg/kg, po administered for 3 days; format: organism-based; conditions: in vivo, 72 h, time 3 day
[3] = Subacute toxicity in C57BL/6 mouse assessed as change in ALT level at 125 mg/kg, po administered for 3 days; format: organism-based; conditions: in vivo, 72 h, time 3 day
[4] = Acute toxicity in C57BL/6 mouse assessed as lethal dose measured for 5 days; conditions: in vivo, time 5 day
[5] = Subacute toxicity in C57BL/6 mouse assessed as change in BUN level at 125 mg/kg, po administered for 3 days; format: organism-based; conditions: in vivo, 72 h, time 3 day
[6] = Subacute toxicity in C57BL/6 mouse assessed as change in kidney weight at 125 mg/kg, po administered for 3 days; format: organism-based; conditions: in vivo, 72 h, time 3 day
[7] = Acute toxicity in C57BL/6 mouse assessed as ruffled fur at 80 mg/kg, po measured for 5 days; format: organism-based; conditions: in vivo, 120 h, time 5 day
[8] = Subacute toxicity in C57BL/6 mouse assessed as change in CREA level at 125 mg/kg, po administered for 3 days; format: organism-based; conditions: in vivo, 72 h, time 3 day
[9] = Cytotoxicity against porcine IPEC-J2 cells assessed as cell death incubated for 4 hrs by MTT assay; format: toxicity, cell-based, Sus scrofa; conditions: pig, ipec-j2, 4 h
[10] = Subacute toxicity in C57BL/6 mouse assessed as reduction in body weight loss at 125 mg/kg, po administered for 3 days; format: organism-based; conditions: in vivo, 72 h, time 3 day
[11] = Acute toxicity in C57BL/6 mouse assessed as animal survival at 40 mg/kg, po measured for 5 days; format: organism-based; conditions: in vivo, 120 h, time 5 day
[12] = Acute toxicity in C57BL/6 mouse assessed as animal survival at 80 mg/kg, po measured for 5 days; format: organism-based; conditions: in vivo, 120 h, time 5 day
RAW264.7 = assay: Cytotoxicity against mouse RAW264.7 cells assessed as cell death incubated for 4 hrs by MTT assay; format: toxicity, cell-based; conditions: raw264.7, 4 h
HEK-293T = assay: Cytotoxicity against human HEK293T cells assessed as cell death incubated for 4 hrs by MTT assay; format: toxicity, cell-based
Escherichia coli [13] = assay: Antimicrobial activity against Escherichia coli ATCC 25922 assessed as reduction in microbial growth in presence of Na+; format: functional, organism-based
Klebsiella pneumoniae [14] = assay: Bactericidal activity against Klebsiella pneumoniae at 0.5 times MIC incubated for 24 hrs by time kill assay; format: functional, organism-based
Streptococcus agalactiae [15] = assay: Synergistic bactericidal activity Streptococcus agalactiae CICC 10465 at 0.5 times MIC incubated for 24 hrs in presence of cuminaldehyde by time kill assay; format: functional, organism-based
Mus musculus [16] = species: Mus musculus; assay: Anti-inflammatory activity in ETEC-induced enteritis mouse model assessed as decrease in IL-6 level in colon by ELISA analysis; format: functional, organism-based
Escherichia coli [17] = assay: Upregulation of intracellular ATP level in Escherichia coli ATCC 25922 at 0.5 to 1 times MIC; format: functional, organism-based
Salmonella typhimurium [18] = assay: Bactericidal activity against Salmonella typhimurium ATCC 14028 at 0.5 times MIC incubated for 24 hrs by time kill assay; format: functional, organism-based; conditions: Salmonella enterica subsp. enterica serovar Typhimurium
Klebsiella pneumoniae [19] = assay: Synergistic bactericidal activity against Klebsiella pneumoniae at 0.5 times MIC incubated for 24 hrs in presence of cuminaldehyde by time kill assay; format: functional, organism-based
Cell membrane [20] = assay: Induction of cytoplasmic membrane depolarization in Escherichia coli ATCC 25922 by DiSC3(5) dye-based fluorescence assay; format: subcellular
Escherichia coli [21] = assay: Antimicrobial activity against Escherichia coli ATCC 25922 assessed as reduction in microbial growth in presence of Mg+; format: functional, organism-based
Escherichia coli [22] = assay: Antibacterial activity against Escherichia coli infected in K88-induced enteritis mouse model assessed as reduction in diarrhea score at 50 mg/kg, ip administered every 12 hrs for 2 days; format: functional, organism-based; conditions: time 2.0 day
Staphylococcus aureus [23] = assay: Bactericidal activity against Staphylococcus aureus ATCC 25923 at 0.5 times MIC incubated for 24 hrs by time kill assay; format: functional, organism-based
Mus musculus [24] = species: Mus musculus; assay: Anti-inflammatory activity in ETEC-induced enteritis mouse model assessed as structural changes in intestine by H and E staining based analysis; format: functional, organism-based
[25] = test system: Staphylococcus epidermidis; assay: Synergistic bactericidal activity Staphylococcus epidermidis ATCC 12228 at 0.5 times MIC incubated for 24 hrs in presence of cuminaldehyde by time kill assay; format: functional, organism-based
Escherichia coli [26] = assay: Induction of ROS accumulation in Escherichia coli ATCC 25922 at 0.5 to 1 time MIC in presence of cuminaldehyde; format: functional, organism-based
Escherichia coli [27] = assay: Antimicrobial activity against Escherichia coli ATCC 25922 assessed as reduction in microbial growth in presence of SGF; format: functional, organism-based
Escherichia coli [28] = assay: Antibacterial activity against Escherichia coli infected in K88-induced enteritis mouse model assessed as reduction in number of colonies in ileum at 50 mg/kg, ip administered every 12 hrs for 2 days; format: functional, organism-based; conditions: time 2.0 day
Escherichia coli [29] = assay: Bactericidal activity against Escherichia coli K88 at 0.5 times MIC incubated for 24 hrs by time kill assay; format: functional, organism-based
Escherichia coli [30] = assay: Antimicrobial activity against Escherichia coli ATCC 25922 assessed as reduction in microbial growth in presence of LPS; format: functional, organism-based
Pseudomonas aeruginosa [31] = assay: Bactericidal activity against Pseudomonas aeruginosa 27853 at 0.5 times MIC incubated for 24 hrs by time kill assay; format: functional, organism-based
Mus musculus [32] = species: Mus musculus; assay: Anti-inflammatory activity in ETEC-induced enteritis mouse model assessed as decrease in TNF-alpha level in colon by ELISA analysis; format: functional, organism-based
Cell membrane [33] = assay: Induction of outer membrane permeabilization in Escherichia coli ATCC 25922 by NPN-dye based assay; format: subcellular
Cell membrane [34] = assay: Induction of outer membrane permeabilization in Escherichia coli ATCC 25922 in presence of cuminaldehyde by NPN-dye based assay; format: subcellular
Mus musculus [35] = species: Mus musculus; assay: Anti-inflammatory activity in ETEC-induced enteritis mouse model assessed as decrease in IL-1beta level in colon by ELISA analysis; format: functional, organism-based
Escherichia coli [36] = assay: Antimicrobial activity against Escherichia coli ATCC 25922 assessed as reduction in microbial growth in presence of Ca+; format: functional, organism-based
Enterococcus faecalis [37] = assay: Synergistic bactericidal activity Enterococcus faecalis ATCC 29212 at 0.5 times MIC incubated for 24 hrs in presence of cuminaldehyde by time kill assay; format: functional, organism-based
Escherichia coli [38] = assay: Antibacterial activity against Escherichia coli infected in K88-induced enteritis mouse model assessed as reduction in number of colonies in feces at 50 mg/kg, ip administered every 12 hrs for 2 days; format: functional, organism-based; conditions: time 2.0 day
Escherichia coli [39] = assay: Upregulation of intracellular ATP level in Escherichia coli ATCC 25922 at 0.5 to 1 times MIC in presence of cuminaldehyde; format: functional, organism-based
Streptococcus agalactiae [40] = assay: Bactericidal activity against Streptococcus agalactiae CICC 10465 at 0.5 times MIC incubated for 24 hrs by time kill assay; format: functional, organism-based
Escherichia coli [41] = assay: Synergistic bactericidal activity against Escherichia coli K88 at 0.5 times MIC incubated for 24 hrs in presence of cuminaldehyde by time kill assay; format: functional, organism-based
Staphylococcus aureus [42] = assay: Synergistic bactericidal activity Staphylococcus aureus ATCC 25923 at 0.5 times MIC incubated for 24 hrs in presence of cuminaldehyde by time kill assay; format: functional, organism-based
Acinetobacter baumannii [43] = assay: Synergistic bactericidal activity against Acinetobacter baumannii at 0.5 times MIC incubated for 24 hrs in presence of cuminaldehyde by time kill assay; format: functional, organism-based
Cell membrane [44] = assay: Induction of cytoplasmic membrane depolarization in Escherichia coli ATCC 25922 assessed as increase in fluorescence intensity in presence of cuminaldehyde by DiSC3(5) dye-based fluorescence assay
Escherichia coli [45] = assay: Antimicrobial activity against Escherichia coli ATCC 25922 assessed as reduction in microbial growth in presence of SIF; format: functional, organism-based
Pseudomonas aeruginosa [46] = assay: Synergistic bactericidal activity against Pseudomonas aeruginosa 27853 at 0.5 times MIC incubated for 24 hrs in presence of cuminaldehyde by time kill assay; format: functional, organism-based
Escherichia coli [47] = assay: Antibacterial activity against Escherichia coli infected in K88-induced enteritis mouse model assessed as reduction in number of colonies in colon at 50 mg/kg, ip administered every 12 hrs for 2 days; format: functional, organism-based; conditions: time 2.0 day
Enterococcus faecalis [48] = assay: Bactericidal activity against Enterococcus faecalis ATCC […] at 0.5 times MIC incubated for 24 hrs by time kill assay; format: functional, organism-based
Acinetobacter baumannii [49] = assay: Bactericidal activity against Acinetobacter baumannii at 0.5 times MIC incubated for 24 hrs by time kill assay; format: functional, organism-based
[50] = test system: Staphylococcus epidermidis; assay: Bactericidal activity against Staphylococcus epidermidis ATCC 12228 at 0.5 times MIC incubated for 24 hrs by time kill assay; format: functional, organism-based
Salmonella typhimurium [51] = assay: Synergistic bactericidal activity against Salmonella typhimurium ATCC 14028 at 0.5 times MIC incubated for 24 hrs in presence of cuminaldehyde by time kill assay; format: functional, organism-based; conditions: Salmonella enterica subsp. enterica serovar Typhimurium
Escherichia coli [52] = assay: Induction of ROS accumulation in Escherichia coli ATCC 25922 at 0.5 to 1 time MIC; format: functional, organism-based

CC[C@H](C)[C@H](NC(=O)[C@@H](NC(=O)[C@@H](CCCNC(=N)N)NC(=O)[C@H](C)NC(=O)[C@H](C)NC(=O)[C@@H](N)Cc1cccc2ccccc12)[C@@H](C)CC)C(=O)N[C@@H](CC(C)C)C(=O)N[C@H](CCCNC(=N)N)C(=O)N[C@@H](Cc1c[nH]c2ccccc12)C(=O)N[C@H](CCCNC(=N)N)C(=O)N[C@@H](Cc1ccccc1)C(=O)N[C@@H](CCCNC(=N)N)C(=O)O
Non-toxic: Activity [1] | Activity [2] | Activity [3] | Activity [5] | Activity [6] | Activity [7] | Activity [8] | Activity [10] | Activity [11] | Activity [12]
< 50%: Activity [9] | Activity (RAW264.7) | Activity (HEK-293T)
1010 mg/kg: LD50 at 120 h [4]

CC[C@H](C)[C@H](NC(=O)[C@@H](NC(=O)[C@@H](CCCNC(=N)N)NC(=O)[C@H](C)NC(=O)[C@H](C)NC(=O)C(N)Cc1cccc2ccccc12)[C@@H](C)CC)C(=O)N[C@@H](CC(C)C)C(=O)N[C@H](CCCNC(=N)N)C(=O)N[C@@H](Cc1c[nH]c2ccccc12)C(=O)N[C@H](CCCNC(=N)N)C(=O)N[C@@H](Cc1ccccc1)C(=O)N[C@@H](CCCNC(=N)N)C(=O)O (some centres undefined)
active: Activity (Escherichia coli [13]) | Activity (Klebsiella pneumoniae [14]) | Activity (Streptococcus agalactiae [15]) | Activity (Mus musculus [16]) | Activity (Escherichia coli [17]) | Activity (Salmonella typhimurium [18]) | Activity (Klebsiella pneumoniae [19]) | Activity (Cell membrane [20]) Dose-dependent-effect | Activity (Escherichia coli [21]) | Activity (Escherichia coli [22]) | Activity (Staphylococcus aureus [23]) | Activity (Mus musculus [24]) | Activity [25] | Activity (Escherichia coli [26]) | Activity (Escherichia coli [27]) | Activity (Escherichia coli [28]) | Activity (Escherichia coli [29]) | Activity (Escherichia coli [30]) | Activity (Pseudomonas aeruginosa [31]) | Activity (Mus musculus [32]) | Activity (Cell membrane [34]) | Activity (Mus musculus [35]) | Activity (Escherichia coli [36]) | Activity (Enterococcus faecalis [37]) | Activity (Escherichia coli [38]) | Activity (Escherichia coli [39]) | Activity (Streptococcus agalactiae [40]) | Activity (Escherichia coli [41]) | Activity (Staphylococcus aureus [42]) | Activity (Acinetobacter baumannii [43]) | Activity (Cell membrane [44]) | Activity (Escherichia coli [45]) | Activity (Pseudomonas aeruginosa [46]) | Activity (Escherichia coli [47]) | Activity (Enterococcus faecalis [48]) | Activity (Acinetobacter baumannii [49]) | Activity [50] | Activity (Salmonella typhimurium [51]) | Activity (Escherichia coli [52])
inactive: Activity (Cell membrane [33])

Reference: ChEMBL document CHEMBL6087462, “Cuminaldehyde Potentiates Antiproteolytic Peptide Efficacy via Parallel Pathways of Enhanced Inner Membrane-Damaging Activity and Inhibition of Bacterial Energy Metabolism” (J Med Chem, 2025)
